The target in one data set is T1, recombinant mouse APA (Mus musculus, UniProt P16406).
T1 sequence (P16406 1-945): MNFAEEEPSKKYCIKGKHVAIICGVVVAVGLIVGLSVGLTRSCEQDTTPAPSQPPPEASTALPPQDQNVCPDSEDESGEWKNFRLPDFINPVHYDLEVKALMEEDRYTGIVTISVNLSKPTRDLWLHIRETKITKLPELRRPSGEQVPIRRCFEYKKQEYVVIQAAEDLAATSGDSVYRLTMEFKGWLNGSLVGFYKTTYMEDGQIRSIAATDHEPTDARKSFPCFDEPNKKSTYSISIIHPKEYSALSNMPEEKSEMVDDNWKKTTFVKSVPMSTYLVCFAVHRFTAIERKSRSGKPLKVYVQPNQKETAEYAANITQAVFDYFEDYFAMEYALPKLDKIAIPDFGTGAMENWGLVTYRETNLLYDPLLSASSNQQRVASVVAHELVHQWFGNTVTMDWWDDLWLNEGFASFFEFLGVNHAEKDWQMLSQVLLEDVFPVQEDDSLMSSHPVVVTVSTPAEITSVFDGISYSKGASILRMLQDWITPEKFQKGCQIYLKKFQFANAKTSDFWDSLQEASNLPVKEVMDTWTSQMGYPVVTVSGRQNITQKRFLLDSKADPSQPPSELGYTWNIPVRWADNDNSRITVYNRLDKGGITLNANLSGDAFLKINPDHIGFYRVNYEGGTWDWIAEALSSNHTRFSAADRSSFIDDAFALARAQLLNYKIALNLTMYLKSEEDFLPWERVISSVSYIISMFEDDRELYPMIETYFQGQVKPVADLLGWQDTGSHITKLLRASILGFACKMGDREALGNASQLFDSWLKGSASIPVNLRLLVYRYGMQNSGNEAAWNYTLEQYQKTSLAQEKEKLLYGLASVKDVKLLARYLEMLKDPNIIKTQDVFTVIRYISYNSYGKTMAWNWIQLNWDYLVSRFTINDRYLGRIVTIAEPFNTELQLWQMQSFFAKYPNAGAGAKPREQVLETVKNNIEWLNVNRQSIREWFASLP
Nature of the data set: Measurement of APA activity in vitro (GluβNa hydrolysis, microplate). Type of data set: biochemical. To be noted: 200 μM Glu-βNa, pH 7.4, 37° C., read-out: In vitro inhibition of aminopeptidase A, IC50 classification. The text has this:
In vitro, in the presence of calcium ions, APA hydrolyses a synthetic substrate α-L-glutamyl-β-naphthylamide (GluβNa) to glutamate and β-naphthylamine (βNa). A diazotation reaction in acidic medium makes it possible to reveal the β-naphthylamine by formation of a violet-coloured complex: spectrophotometric measurement then makes it possible to know the amount of complex formed and, by reference to a standard curve produced with increasing concentrations of β-naphthylamine, to deduce the enzymatic activity of the sample.
The reaction takes place at pH 7.4 in 50 mM tris-HCl buffer, in the presence of calcium (4 mM CaCl2)); recombinant mouse APA is incubated at 37° C. in the presence of the substrate (200 μM Glu-βNa) and in the presence or absence of various concentrations of the inhibitor to be tested, in a final volume of 100 μL. The reaction is stopped by adding 10 μL of 3N HCl. A standard curve of β-naphthylamine was prepared in parallel by diazotizing increasing concentrations (up to 0.2 mM) of 2-naphthylamine in 0.1 N HCl.
The following are added to each well: 25 μL of sodium nitrite (NaNO2) (mix, wait 5 minutes at room temperature), 50 μL of ammonium sulfamate (mix, wait 5 minutes at room temperature), then add 25 μL of N-(1-naphthyl) ethylenediamine dihydrochloride (mix, wait for stabilization of the violet colour for approximately 30 minutes at 37° C.).
The absorbance is then measured at 540 nm.

A further data set concerns the target T2, brain APA (Mus musculus, UniProt P16406).
T2 construct: from tissue; host or cells: mouse brain homogenate
T2 sequence (P16406 1-945): T1 sequence (P16406 1-945)
Nature of the data set: Measurement of brain APA activity ex vivo after i.v. administration. The format is in vivo, mice. To be noted: for brain APA activity: 10 min. Here is the method:
Brain APA activity was determined as described above.
In vivo, in mice (male, 18-20 g Charles River), Examples 22 and 52 were administered i.v. (5 mg/kg and 4 mg/kg respectively, in a volume of 200 μL). For each condition, five mice were used. Mice were sacrified 10, 30, 60, 120 and 180 min after the injection. The brains were immediately removed and homogenized by sonication in 10 vol of ice-cold 50 mM Tris-HCl buffer (pH 7.4). APA enzymatic activity was measured on brain homogenates. For this purpose, aliquots of the tissue homogenate (16 μL) were incubated for 30 min at 37° C. with 200 μM of GluβNA, 4 mM CaCl2, and 1 μM bestatin inhibitor, with or without 5 μM EC33, in a total volume of 100 μL of 50 mM Tris-HCl buffer (pH 7.4). Then the assay was pursued as described above.

Structures are written as SMILES.

Regarding `NC(CCC(=O)O)P(=O)(O)CCc1ccccc1` (stereo not drawn) [Example 22, 4-amino-4-[hydroxy(2-phenylethyl)phosphoryl]butanoic acid], on recombinant mouse APA, the IC50 is less than 30 nM. The “brain APA activity maximally decreased by” value on brain APA (5 mg/kg i.v., conscious mice, from 10 min until 60 min) came out at 47%. At brain APA (5 mg/kg i.v., mice), the “brain APA activity” value is recorded as 37.5±3.3 nmol of GluNA hydrolyzed per mg of protein per h. Moreover, the “brain APA activity time course” value on brain APA (5 mg/kg i.v., mice, after 120 min) was “return to basal values”. In addition, the “ability to cross the blood brain barrier and enter the brain” value at brain APA (5 mg/kg i.v., mice, by inhibition of brain APA activity) is “cross the blood brain barrier (BBB) and to enter the brain”.
With `NC(CCC(=O)O)P(=O)(O)CCCc1ccccc1` (stereo not drawn) [Example 37, 4-amino-4-[hydroxy(3-phenylpropyl)phosphoryl]butanoic acid], the IC50 on recombinant mouse APA was 30 to 300 nM.
With `NC(CCC(=O)O)P(=O)(O)CCc1ccccc1OC(F)(F)F` (stereo not drawn) [Example 38, 4-amino-4-[hydroxy({2-[2-(trifluoromethoxy)phenyl]ethyl})phosphoryl]butanoic acid], the IC50 on recombinant mouse APA is less than 30 nM.
For `NC(CCC(=O)O)P(=O)(O)CCc1ccccc1-c1ccccc1` (stereo not drawn) [Example 39, 4-amino-4-[(2-{[1,1′-biphenyl]-2-yl}ethyl)(hydroxy)phosphoryl]butanoic acid], the IC50 at recombinant mouse APA was 30 to 300 nM.
As to `NC(CCC(=O)O)P(=O)(O)CCc1cccc(Cl)c1Cl` (stereo not drawn) [Example 40, 4-amino-4-{[2-(2,3-dichlorophenyl)ethyl](hydroxy)phosphoryl}butanoic acid], on recombinant mouse APA, the IC50 is less than 30 nM.
For `COc1c(Cl)cccc1CCP(=O)(O)C(N)CCC(=O)O` (stereo not drawn) [Example 41, 4-amino-4-{[2-(3-chloro-2-methoxyphenyl)ethyl](hydroxy)phosphoryl}butanoic acid], the IC50 on recombinant mouse APA was 30 to 300 nM.
As to `Cn1cc(CCP(=O)(O)C(N)CCC(=O)O)c2ccccc21` (stereo not drawn) [Example 42, 3-carboxy-1-{hydroxy[2-(1-methyl-1H-indol-3-yl)ethyl]phosphoryl}propan-1-aminium chloride], the IC50 on recombinant mouse APA lay within 30 to 300 nM.
In the case of `NC(CCC(=O)O)P(=O)(O)CCc1ccccc1OC1CCCCC1` (stereo not drawn) [Example 43, 3-carboxy-1-({2-[2-(cyclohexyloxy)phenyl]ethyl}(hydroxy)phosphoryl) propan-1-aminium chloride], the IC50 on recombinant mouse APA was less than 30 nM.
Same read-out and setting: the value for `COCCOc1ccccc1CCP(=O)(O)C(N)CCC(=O)O` (stereo not drawn) [Example 44, 3-carboxy-1-[hydroxy({2-[2-(2-methoxyethoxy)phenyl]ethyl})phosphoryl]propan-1-aminium chloride] was less than 30 nM; that for `COc1cc(F)ccc1CCP(=O)(O)C(N)CCC(=O)O` (stereo not drawn) [Example 46, 4-amino-4-{[2-(4-fluoro-2-methoxyphenyl)ethyl](hydroxy)phosphoryl}butanoic acid] was less than 30 nM.
With `NC(CCC(=O)O)P(=O)(O)CCn1ncc2ccccc21` (stereo not drawn) [Example 47, 4-amino-4-{hydroxy[2-(1H-indazol-1-yl)ethyl]phosphoryl}butanoic acid], at recombinant mouse APA, the IC50 lay in the range of 300 to 10000 nM.
For the compound `NC(CCC(=O)O)P(=O)(O)CCc1ccccc1OCc1ccccc1` (stereo not drawn) [Example 48, 1-({2-[2-(benzyloxy)phenyl]ethyl}(hydroxy)phosphoryl)-3-carboxy propan-1-aminium chloride], the IC50 at recombinant mouse APA is less than 30 nM.
On to `NC(CCCC(=O)O)P(=O)(O)CCc1ccccc1` (stereo not drawn) [Example 49, 5-amino-5-[hydroxy(2-phenylethyl)phosphoryl]pentanoic acid], for which the IC50 at recombinant mouse APA was in the range of 300 to 10000 nM.
Turning to `N[C@@H](CCC(=O)O)P(=O)(O)CCc1ccccc1` [Example 50, (1R)-3-carboxy-1-[hydroxy(2-phenylethyl)phosphoryl]propan-1-aminium chloride], the half-maximal inhibitory concentration (IC50) at recombinant mouse APA is less than 30 nM.
In the case of `N[C@H](CCC(=O)O)P(=O)(O)CCc1ccccc1` [Example 51, (1S)-3-carboxy-1-[hydroxy(2-phenylethyl)phosphoryl]propan-1-aminium chloride], on recombinant mouse APA, the IC50 fell in the range of 300 to 10000 nM.
Turning to `COc1ccccc1CCP(=O)(O)[C@@H](N)CCC(=O)O.Cl` [Example 52, (1R)-3-carboxy-1-{hydroxy[2-(2-methoxyphenyl)ethyl]phosphoryl} propan-1-aminium chloride], the IC50 at recombinant mouse APA is less than 30 nM. The “brain APA activity” value at brain APA (4 mg/kg i.v., mice) is 12.0±4.0 nmol of GluNA hydrolyzed per mg of protein per h. Moreover, the “ability to cross the BBB and enter the brain” value on brain APA (4 mg/kg i.v., mice, by inhibition of brain APA activity) was “cross the BBB and to enter the brain”. Further, the inhibition at 4 mg/kg at brain APA (mouse, iv, 4 mg/kg i.v., mice, 120 min after the injection, read-out: brain APA activity inhibited by) was 35%.
Regarding `N[C@@H](CCC(=O)O)P(=O)(O)CCc1ccccc1OC1CCCCC1` [Example 53, (4R)-4-amino-4-({2-[2-(cyclohexyloxy)phenyl]ethyl} (hydroxy)phosphoryl) butanoic acid], on recombinant mouse APA, the IC50 was less than 30 nM.
Same read-out and setting: the value for `COc1ccccc1CP(=O)(O)C(N)CCS(=O)(=O)O` (stereo not drawn) [Example 60, 3-amino-3-{hydroxy[(2-methoxyphenyl)methyl]phosphoryl}propane-1-sulfonic acid] was 30 to 300 nM; that for `NC(CCS(=O)(=O)O)P(=O)(O)CCc1ccccc1` (stereo not drawn) [Example 61, 3-amino-3-[hydroxy(2-phenylethyl)phosphoryl]propane-1-sulfonic acid] was 300 to 10000 nM; that for `COc1ccccc1CCP(=O)(O)C(N)CCS(=O)(=O)O` (stereo not drawn) [Example 62, 3-amino-3-{hydroxy[2-(2-methoxyphenyl)ethyl]phosphoryl}propane-1-sulfonic acid] was 30 to 300 nM.
Take `NC(CCS(=O)(=O)O)P(=O)(O)CCCc1ccccc1` (stereo not drawn) [Example 63, 3-amino-3-[hydroxy(3-phenylpropyl)phosphoryl]propane-1-sulfonic acid]: at recombinant mouse APA, the IC50 lay within 300 to 10000 nM.
The same measure, in the same setting: the figure for `NC(CCS(=O)(=O)O)P(=O)(O)Cc1cccc(-c2ccccc2)c1` (stereo not drawn) [Example 64, 3-amino-3-[({[1,1′-biphenyl]-3-yl}methyl)(hydroxy)phosphoryl]propane-1-sulfonic acid] is 300 to 10000 nM; for `NC(CCS(=O)(=O)O)P(=O)(O)Cc1cc(-c2ccccc2)no1` (stereo not drawn) [Example 65, 3-amino-3-{hydroxy[(3-phenyl-1,2-oxazol-5-yl)methyl]phosphoryl}propane-1-sulfonic acid] it is 300 to 10000 nM.
On to `NC(CCS(=O)(=O)O)P(=O)(O)Cc1cc(-c2ccccc2)on1` (stereo not drawn) [Example 66, 3-amino-3-{hydroxy[(5-phenyl-1,2-oxazol-3-yl)methyl]phosphoryl}propane-1-sulfonic acid], for which the IC50 on recombinant mouse APA fell in the range of 300 to 10000 nM.
On to `NC(CCCS(=O)(=O)O)P(=O)(O)CCc1ccccc1` (stereo not drawn) [Example 67, 4-amino-4-[hydroxy(2-phenylethyl)phosphoryl]butane-1-sulfonic acid], for which the IC50 at recombinant mouse APA is 30 to 300 nM.
Turning to `NC(CCP(=O)(O)O)P(=O)(O)CCc1ccccc1` (stereo not drawn) [Example 68, {3-amino-3-[hydroxy(2-phenylethyl)phosphoryl]propyl}phosphonic acid], at recombinant mouse APA, the IC50 lay in the range of 300 to 10000 nM.

These data come from patent US11192907B2, “Aminopeptidase A inhibitors and pharmaceutical compositions comprising the same” (QUANTUM GENOMICS, priority 2018, dated 2021).
